Source: patent US12012390B2, “Flavone compounds for the treatment and prophylaxis of hepatitis B virus disease” (priority 2018, dated 2024)

Legend:
[1] = system: HBeAg level (surrogate marker for cccDNA) in HepDES19 cells; assay: Engineered HepDES19 primary screen assay (HBeAg as surrogate marker for cccDNA); format: cell-based, HBV; conditions: Hepatitis B virus, HepDES19, 120 h, read-out: IC50 (HBeAg) in HepDES19 primary screen assay, HepDES19 cells, 5 days incubation with compound, HBeAg by ELISA
Source text: The assay was employed to screen for novel cccDNA inhibitors. HepDES19 is a cccDNA-producing cell line. In this cell line, HBeAg in the cell culture supernatant as surrogate marker, as HBeAg production depends on cccDNA level and activity. HepDES19 is an engineered cell line which contains a 1.1 unit length HBV genome, and pgRNA transcription from the transgene is controlled by Tetracycline (Tet). In the absence of Tet, pgRNA transcription will be induced, but HBV e antigen (HBeAg) could not be produced from this pgRNA due to very short leader sequence before the HBeAg start codon and the start codon is disrupted. Only after cccDNA is formed, the missing leader sequence and start codon mutation would be restored from the 3′-terminal redundancy of pgRNA, and then HBeAg could be synthesized. Therefore, HBeAg could be used as a surrogate marker for cccDNA (Zhou, T. et al., Antiviral Res. (2006), 72(2), 116-124; Guo, H. et al., J. Virol. (2007), 81(22), 12472-12484).
HepDES19 cells were seeded at 2×10^6 cells per T150 flask and cultured with the culture medium (Dulbecco's Modified Eagle Medium: Nutrient Mixture F-12 [DMEM-F12, Gibco Cat. 11320-82], 10% Fetal Bovine Serum [FBS, Clontech Cat. 631101], 0.1 mM Non-Essential Amino Acids Solution [NEAA, Gibco Cat. 11140-050], 50 μg/mL Penicillin-Streptomycin [PS, Invitrogen Cat. 15140-163], 500 μg/mL Geneticin [G418, Invitrogen Cat. 10131-027]) containing 3 μg/mL Tet (Sigma, Cat. 87128) for 5 days. Cells were then seeded at 4×10^6 cells per T150 in the same culture medium as described above in the absence of Tet for 8 days. Cells were then harvested and frozen at density of 2×10^6 cells per mL. For compound testing, the frozen cells were thawed and seeded into 96-well plates at a density of 6×10^4 cells per well. At 24 hrs after seeding, half log serial dilutions of compounds made with Dimethyl sulfoxide (DMSO, Sigma, Cat. D2650) were further diluted with the same culture medium as described above before they were added to the cells to reach desired final compound concentrations and 1% DMSO concentration. Plates were then incubated at 37° C. for another 5 days before measurement of HBeAg level and cell viability. Intracellular HBeAg level were measured with enzyme-linked immunosorbent assay (ELISA) kit (Shanghai Kehua Diagnostic Medical Products Co., Ltd). Cell viability was assessed using Cell Counting Kit-8 (Donjindo, Cat. CK04-20). IC50 values were derived from the dose-response curve using 4 parameter logistic curve fit method.
The compounds of the present invention were tested for their capacity to inhibit extracellular HBeAg level as described herein.

[2] = system: HBV in primary human hepatocytes (PHH); assay: Cryopreserved primary human hepatocytes (PHH) HBV infection assay; format: cell-based; conditions: Hepatitis B virus, Hepatocyte, 216 h, HBV-infected cryopreserved PHH, 9 days post-compound treatment, extracellular HBsAg by CLIA; read-out: HBsAg IC50
Procedure: This assay is used to confirm the anti-HBV effect of the compounds in HBV PHH infection assay. Cryopreserved PHH (BioreclamationIVT, Lot YJM) was thawed at 37° C. and gently transferred into pre-warmed InVitroGRO HT medium (BioreclamationIVT, Cat. S03317). The mixture was centrifuged at 70 relative centrifugal force (RCF) for 3 minutes at RT, and the supernatant was discarded. Pre-warmed InVitroGRO CP medium (BioreclamationIVT, Cat #S03316) was added to the cell pellet to gently re-suspend cells. The cells were seeded at the density of 5.8×10^4 cells per well to collagen I coated 96-well plate (Gibco, Cat. A1142803) with the InVitroGRO CP medium. All plates were incubated at 37° C. with 5% CO2 and 85% humidity.
At 20 hours after plating, the medium was changed to PHH culture medium (Dulbecco's Modified Eagle Medium (DMEM)/F12 (1:1) (Gibco, Cat. 11320-033), 10% fetal bovine serum (Gibco Cat. 10099141), 100 U/mL penicillin, 100 μg/mL streptomycin (Gibco, Cat. 151401-122), 5 ng/mL human epidermal growth factor (Invitrogen Cat. PHG0311L), 20 ng/mL dexamethasone (Sigma, Cat. D4902) and 250 ng/mL human recombinant insulin (Gibco, Cat. 12585-014)). And the cells were incubated at 37° C. with 5% CO2 and 85% humidity for 4 hours. The medium was then changed to pre-warmed PHH culture medium containing 4% polyethylene glycol (PEG) MW8000 (Sigma, Cat. P1458-50ML) and 1% DMSO (Sigma, Cat. D2650). 5.8×10^6 genomic equivalents of HBV were added into the medium.
At 24 hours post-infection, the cells were gently washed with PBS and refreshed with PHH culture medium supplemented with 1% DMSO, and 0.25 mg/mL Matrix gel (Corning, Cat. 356237) at 200 μL per well. All plates were immediately placed in at 37° C. CO2 incubator.
24 hours later, serial dilutions of compounds made with DMSO were further diluted with the same culture medium (PHH culture medium supplemented with 1% DMSO and 0.25 mg/mL Matrix gel as described above) before they were added to the cells to reach desired final compound concentrations and 1% DMSO concentration. The medium containing the compounds were refreshed every three days.
At 9 days post-compound treatment, extracellular HBsAg level were measured with Chemiluminescence Immuno Assay (CLIA) kit (Autobio, HBsAg Quantitative CLIA). Extracellular HBV DNA was extracted by MagNA Pure 96 system (Roche) and then determined by quantitative PCR with the following primers and probe: […]
HBsAg IC50 and HBV DNA IC50 values were derived from the dose-response curve using 4 parameter logistic curve fit method. The compounds of formula (I) have HBsAg IC50<20 μM, particularly <1 μM; and HBV DNA IC50<50 μM. Test results of the compounds of this invention as well as the reference compounds in Cryopreserved PHH assay are given in Table 2 and Table 3.

Row | Structure (SMILES) | IC50 [1] [nM] | IC50 [2] [nM]
1 | O=C(O)C1CC(OCCCOc2ccc(-c3cc(=O)c4cccc(Cl)c4o3)cc2)C1 (stereo not shown) [Example 13, 3-[3-[4-(8-chloro-4-oxo-chromen-2-yl)phenoxy]propoxy]cyclobutanecarboxylic acid] | 690 | 1270
2 | O=C(O)c1cccc(OCC(O)COc2ccc(-c3cc(=O)c4cccc(Cl)c4o3)cc2)c1 (stereo not shown) [Example 14, 3-[3-[4-(8-chloro-4-oxo-chromen-2-yl)phenoxy]-2-hydroxy-propoxy]benzoic acid] | 20400 | 19200
3 | O=C(O)C1CC(OCCOc2ccc(-c3cc(=O)c4ccc(F)c(Cl)c4o3)cc2)C1 (stereo not shown) [Example 15, 3-[2-[4-(8-chloro-7-fluoro-4-oxo-chromen-2-yl)phenoxy]ethoxy]cyclobutanecarboxylic acid] | 10300 | 280
4 | COc1ccc2c(=O)cc(-c3ccc(OCCOC4CC(C(=O)O)C4)cc3)oc2c1Cl (stereo not shown) [Example 19, 3-[2-[4-(8-chloro-7-methoxy-4-oxo-chromen-2-yl)phenoxy]ethoxy]cyclobutanecarboxylic acid] | 22200 | 1510
5 | O=C(O)C1CC(OCCOc2ccc(-c3cc(=O)c4ccc(Cl)c(Cl)c4o3)cc2)C1 (stereo not shown) [Example 21, 3-[2-[4-(7,8-dichloro-4-oxo-chromen-2-yl)phenoxy]ethoxy]cyclobutanecarboxylic acid] | 290 | 5100
6 | N#Cc1ccc2c(=O)cc(-c3ccc(OCCOC4CC(C(=O)O)C4)cc3)oc2c1Cl (stereo not shown) [Example 23, 3-[2-[4-(8-chloro-7-cyano-4-oxo-chromen-2-yl)phenoxy]ethoxy]cyclobutanecarboxylic acid] | 21100 | 7110
7 | O=c1cc(-c2ccc(OCCO[C@H]3C[C@@H](C(=O)O)C3)cc2)oc2c(Cl)ccc(O)c12 [Example 24, Cis-3-[2-[4-(8-chloro-5-hydroxy-4-oxo-chromen-2-yl)phenoxy]ethoxy]cyclobutanecarboxylic acid] | 1140 | 4830
8 | COc1ccc(Cl)c2oc(-c3ccc(OCCO[C@H]4C[C@@H](C(=O)O)C4)cc3)cc(=O)c12 [Example 25, Cis-3-[2-[4-(8-chloro-5-methoxy-4-oxo-chromen-2-yl)phenoxy]ethoxy]cyclobutanecarboxylic acid] | 1050 | 930
9 | O=c1cc(-c2ccc(OCCO[C@H]3C[C@@H](C(=O)O)C3)cc2)oc2c(Cl)ccc(Br)c12 [Example 28, Cis-3-[2-[4-(5-bromo-8-chloro-4-oxo-chromen-2-yl)phenoxy]ethoxy]cyclobutanecarboxylic acid] | 2800 | 1920
10 | O=c1cc(-c2ccc(OCCO[C@H]3C[C@@H](C(=O)O)C3)cc2)oc2c(Cl)ccc(Cl)c12 [Example 29, Cis-3-[2-[4-(5,8-dichloro-4-oxo-chromen-2-yl)phenoxy]ethoxy]cyclobutanecarboxylic acid] | 210 | 900
11 | O=c1cc(-c2ccc(OCCO[C@H]3C[C@@H](C(=O)O)C3)cc2)oc2c(Cl)ccc(C3CC3)c12 [Example 30, Cis-3-[2-[4-(8-chloro-5-cyclopropyl-4-oxo-chromen-2-yl)phenoxy]ethoxy]cyclobutanecarboxylic acid] | 130 | 7290
12 | O=c1cc(-c2ccc(OCCO[C@H]3C[C@@H](C(=O)O)C3)cc2)oc2c(Br)cccc12 [Example 33, Cis-3-[2-[4-(8-bromo-4-oxo-chromen-2-yl)phenoxy]ethoxy]cyclobutanecarboxylic acid] | 310 | 680
13 | O=c1cc(-c2cnc(OCCO[C@H]3C[C@@H](C(=O)O)C3)cn2)oc2c(Cl)cccc12 [Example 39, Cis-3-[2-[5-(8-chloro-4-oxo-chromen-2-yl)pyrazin-2-yl]oxyethoxy]cyclobutanecarboxylic acid] | 9010 | 5740
14 | COC(=O)[C@H]1C[C@@H](OCCOc2cnc(-c3cc(=O)c4cccc(Cl)c4o3)cn2)C1 [Example 40, Cis-methyl 3-[2-[5-(8-chloro-4-oxo-chromen-2-yl)pyrazin-2-yl]oxyethoxy]cyclobutanecarboxylate] | 1610 | 7120
15 | O=c1cc(-c2ccc(OCCO[C@H]3C[C@@H](C(=O)O)C3)c(F)c2)oc2c(Cl)cccc12 [Example 42, Cis-3-[2-[4-(8-chloro-4-oxo-chromen-2-yl)-2-fluoro-phenoxy]ethoxy]cyclobutanecarboxylic acid] | 610 | 580
16 | O=c1cc(-c2ccc(OCCO[C@H]3C[C@@H](C(=O)O)C3)c(Cl)c2)oc2c(Cl)cccc12 [Example 43, Cis-3-[2-[2-chloro-4-(8-chloro-4-oxo-chromen-2-yl)phenoxy]ethoxy]cyclobutanecarboxylic acid] | 250 | 220
17 | O=c1cc(-c2ccc(OCCO[C@H]3C[C@@H](C(=O)O)C3)c(Br)c2)oc2c(Cl)cccc12 [Example 44, Cis-3-[2-[2-bromo-4-(8-chloro-4-oxo-chromen-2-yl)phenoxy]ethoxy]cyclobutanecarboxylic acid] | 570 | 40
18 | O=c1cc(-c2ccc(OCCO[C@H]3C[C@@H](C(=O)O)C3)c(C3CC3)c2)oc2c(Cl)cccc12 [Example 45, Cis-3-[2-[4-(8-chloro-4-oxo-chromen-2-yl)-2-cyclopropyl-phenoxy]ethoxy]cyclobutanecarboxylic acid] | 13200 | 530
19 | N#Cc1cc(-c2cc(=O)c3cccc(Cl)c3o2)ccc1OCCOC1CC(C(=O)O)C1 (stereo not shown) [Example 46, 3-[2-[4-(8-chloro-4-oxo-chromen-2-yl)-2-cyano-phenoxy]ethoxy]cyclobutanecarboxylic acid] | 16000 | 130
20 | Cc1cc(-c2cc(=O)c3cccc(Cl)c3o2)ccc1OCCOC1CC(C(=O)O)C1 (stereo not shown) [Example 47, 3-[2-[4-(8-chloro-4-oxo-chromen-2-yl)-2-methyl-phenoxy]ethoxy]cyclobutanecarboxylic acid] | 40 | 240
